# pEC50: −log10 of the molar value. Where “and” joins values, the source holds several entries; their conditions need not be identical. Equal values may be shown once. Entries after “also recorded” stand apart in the source; their conditions may differ. Non-standard residues stand in square brackets, D forms with d. Residues, ends and D or L forms follow the SMILES beside them. *: point of attachment. Biotin = O=C1N[C@H]2[C@H](CS[C@H]2CCCCC(=O)*)N1
# How the values were obtained:
# [1] = tested on: retinal ganglion cells (RGCs); assay: Retinal ganglion cell survival in retinal explants; conditions: Brn3a labeling
# Description: FIG. 8 illustrates retinal explants labeled with Brn3a (green) to label retinal ganglion cells (RGCs), ToPro3 to label all cell nuclei (red) and ChAT to label displaced amacrine cells (blue).
# [2] = tested on: antimycin-induced scratching; assay: Topical antimycin-induced scratching; assay type: in vivo, C57BL/6J mice; conditions: 100 μM topical with 200 μM antimycin, 60 min
# Procedure: However, antimycin-induced scratching in mice was […] by biotin-free HDAP2. Dermal administration of antimycin, a mitochondrial Complex III irreversible inhibitor, is known to induce ROS formation and oxidative stress in C fibers of sensory neurons, resulting in severe scratching in mice. Biotin-HDAP2 and biotin-free HDAP2 were tested to see if either can inhibit topical antimycin-induced itching in 12 months old C57BL/6J mice. […] Specifically, 200 μM of topical antimycin in methanol induced itching, which was monitored for 60 min. […] Error bars represent SEM (n=3) **P<0.001. Topical administration of 100 μM of biotin-free HDAP2 with antimycin increased scratching by 2.5 fold. Error bars represent SEM (n=3) ***P<0.0001.
# [3] = Displacement of nonyl acridine orange (NAO) from POPC-CL liposomes; assay type: binding, bovine
# Procedure: The resulting multilamellar vesicles were vortexed lightly and sized into small unilamellar vesicles by heated bath sonication for 25 min. All liposomes were cooled to ambient temperature before use.
# Interaction of biotin-HDAP2 Peptide with Phospholipids: The ability of biotin-HDAP2 to displace nonyl acridine orange (NAO), a fluoroprobe known to selectively bind CL was determined. Interaction of biotin-HDAP2 with phospholipids was examined by measuring changes in the fluorescence spectra of 3 μM NAO (Molecular Devices, Sunnyvale, CA)) with excitation at 480 nm. CL and POPC in liposomes were use at 30 μM. Dose response curves were done with 30 μM CL, biotin-HDAP2 (0, 2.5, 5, 10, 20, and 30 μM), and 3 μM of NAO (ex/em at 480 nm/520 nm). All experiments were done in 10 mM Hepes (pH 7.4) to optimize electrostatic interactions of peptides with phospholipids.
# MDBK cells [4] = conditions: dilutions up 100 μM
# MDBK cells [5] = assay: Uptake and intracellular localization of biotin-HDAP2 (streptavidin staining); assay type: cell-based, bovine; conditions: for cellular uptake and intracellular localization: 37° C., up to 1 h
# Procedure: (§1) Biotin-HDAP2 was studied using Madin-Darby Bovine Kidney Epithelial cell line (MDBK). Monolayers of cells were grown on 6-well plates for 3 days. On day 4, cells were washed twice with pre-warmed DMEM, and then incubated with 0.2 ml of DMEM containing 10 μM biotin-HDAP2 at 37° C. for up to 1 h. Cells were then washed and fixed in 4% paraformaldehyde and biotin-HDAP2 was detected using Alexa FLUOR™ 488 streptavidin. Cells were also co-stained with MitoTracker-Red or DAPI to identify cytoplasmic compartment or nuclei, respectively. Cells were then visualized in a fluorescent microscope (Nikon Eclipse-ci-SRS).
# as §1, with “MitoTracker-Red” for “MitoTracker-Red or DAPI”, “identify mitochondria.” for “identify cytoplasmic compartment or nuclei, respectively.”, “visualized using” for “visualized in”
# Biotin-HDAP2 uptake: To assess uptake of biotin-HDAP2 into cells, cultures were incubated in serum-free media for three days to deplete endogenous biotin (Birk et al., 2013) and then treated with biotin-HDAP2 (1 μM) for one hour. Cells were fixed with 4% paraformaldehyde and incubated for one hour with Alexa Fluor 594 conjugated streptavidin (1:100, Jackson ImmunoResearch) to localize the peptide within the cells, Hoechst 33342 (10 μg/ml, Novus) to label nuclei, and Mito Tracker Red CMXRos (MTR; 50 nM, Invitrogen) to identify mitochondria; MTR binds to thiol groups, which are heavily concentrated in the mitochondrial matrix. Cells were rinsed and imaged immediately in the dish using a Nikon Eclipse 50i fluorescent microscope with a 40× immersion objective (NA 0.8).
# Intracellular Localization of biotin-HDAP2: Intracellular targeting of biotin-HDAP2 was determined by incubating MDBK cells (ATCC-CCL22) that were grown in biotin-free media for 72 hours, with 10 μM of N-biotinylated biotin-HDAP2 for 1 hour. Cells were then fixed with 4% paraformaldehyde, permeabilized with 0.1% Triton X-100, and treated with streptavidin conjugated with Alexa Fluor 488 (SA) for 30 minutes at room temperature. […]
# SA fluorescence was normalized to Hoechst fluorescence to account for differences in cell number in each field. The intensity of SA fluorescence was measured in each field, using the “Analyze” feature in ImageJ to compute the mean pixel intensity (in arbitrary fluorescence units) from the images. […]
# MDBK cells [6] = assay: Cell survival in serum-free media (AlamarBlue); assay type: cell-based, bovine
# Procedure: Serum starvation experiments: Biotin-HDAP2's ability to improve cell viability and function following serum starvation was assessed. For all experiments, MDBK cells were seeded in 35 mm cell culture dishes (5×10^4 cells) in DMEM medium with 10% FBS (Fetal Bovine Serum) for 24 hrs and then incubated in serum-free medium with or without biotin-HDAP2 (1 μM) for 5 days to induce cell death. For quantitative measurements, wells were washed to remove dead cells, and then stained with AlamarBlue for 60 min. Quantitative analysis of dye conversion was measured using a fluorescent plate reader (550 ex/580 em) and cell viability was expressed as folds change (increase or decrease) over scrum-starved untreated cells.
# Effects of peptides on cell survival in serum-free media: Cell survival in serum starvation conditions was studied in the presence and absence of biotin-HDAP2 using MDBK cells. Cells were plated at a density of 1-2×10^5 cells/well in 96 well plates in DMEM/10% FBS media. The following day, cells were washed and the medium replaced with DMEM serum-free media in the presence or absence of different concentrations of biotin-HDAP2 and incubated for 5 days. Cell viability was assessed using the Resaruzin (Alamar blue) indicator dye. Quantitative analysis of dye conversion was measured using a fluorescent plate reader (ex/em=550/580 nm) and viability was expressed as fold increase over of untreated cells.
structure (smiles),measurement,setting,value
"N=C(N)NCCC[C@@H](NC(=O)[C@H](Cc1ccccc1)NC(=O)[C@H](Cc1ccccc1)NC(=O)[C@@H](CCCNC(=N)N)NC(=O)CCCC[C@@H]1SC[C@@H]2NC(=O)N[C@@H]21)C(N)=O [biotin-HDAP2, Biotin-dArg-Phe-Phe-dArg-NH2] (Biotin-[dR]FF[dR]-NH2)",survival of retinal ganglion cells in retinal explants,[1],promoted survival of retinal ganglion cells in retinal explants
same,effect on antimycin-induced scratching,[2],inhibited scratching
same,effect on intensity of NAO fluorescence,[3],decreased the intensity of NAO fluorescence to background levels; also recorded: decreases the intensity of NAO fluorescence with POPC-CL liposomes in a dose-dependent manner
same,cellular toxicity,MDBK cells [4],No toxicity in MDBK cell growth was observed
same,cellular uptake and intracellular localization,MDBK cells [5]; 10 μM,targets mitochondria; also recorded: penetrates cell membranes
same,cellular uptake and intracellular localization,"MDBK cells [5]; 10 μM, listed as Biotin-HDAP2",primarily localized to the cytoplasmic compartment; also recorded: taken into mitochondria; also recorded: co-localized with MitoTracker-Red
same,speed of entry into the cell compared with biocytin,"MDBK cells [5]; 10 μM, 1 hour, serum-starved MDBK cells",about 6 times
same,level of biotin-HDAP2 in cells relative to endogenous biotin,"MDBK cells [5]; MDBK cells, streptavidin AF 488",> 10 ×
same,water solubility,Water solubility,water soluble
same,AlamarBlue fluorescence / protection during serum starvation,"MDBK cells [6]; 1 μM, 5 days serum starvation",increased AlamarBlue fluorescence
same,increase in cell survival compared to untreated controls,"MDBK cells [6]; 1 μM, serum-free 5 days, AlamarBlue",50%
same,pEC50,"MDBK cells [6]; serum-free, 5 days, AlamarBlue, read-out: EC50, cell survival in serum-free conditions",~7.00 and 7.00

# From patent US20250276996A1, “CATIONICALLY-ENFRAMED HIGH DENSITY AROMATIC PEPTIDES” (Research Foundation of the City University of New York, priority 2022, published 2025)
